Literature values, collected in patent US7863273B2, “Process for the preparation of an optically active 5H-pyrrolo [3,4-B] pyrazine derivative” (Glenmark Generics Ltd., priority 2006, dated 2011).

Experiments:
[1] = tested on: central benzodiazepine receptor sites; details: relative to zopiclone (racemate)
[2] = tested on: pentetrazol-induced convulsions; details: relative to zopiclone (racemate)
[3] = tested on: writhing reflex; details: relative to zopiclone (racemate)
[4] = not given; remark: listed apart in the source

CN1CCN(C(=O)O[C@@H]2c3nccnc3C(=O)N2c2ccc(Cl)cn2)CC1 (single isomer, unassigned) [laevorotatory isomer]
potency of action: affinity for central benzodiazepine receptor sites [1]: almost inactive
potency of action: antagonist activity with respect to pentetrazol-induced convulsions [2]: almost inactive
potency of action: writhing reflex test in mice [3]: almost inactive
activity as compared to the racemate: almost inactive
toxicity as compared to the racemate [4]: more toxic than the racemate

CN1CCN(C(=O)O[C@H]2c3nccnc3C(=O)N2c2ccc(Cl)cn2)CC1 [dextrorotatory isomer, (+)-(5S)-6-(chloropyridin-2-yl)-7-oxo-6,7-dihydro-5H-pyrrol[3,4-b]pyrazin-5-yl 4-methylpiperazine-1-carboxylate]
potency of action: affinity for central benzodiazepine receptor sites [1]: approximately twice as active
potency of action: antagonist activity with respect to pentetrazol-induced convulsions [2]: approximately twice as active
potency of action: writhing reflex test in mice [3]: approximately twice as active
activity as compared to the racemate: approximately twice as active
toxicity as compared to the racemate [4]: lower toxicity
